{"source": "patent US10851089B2", "about": "“Matrix metalloproteinase (MMP) inhibitors and methods of use thereof” (Foresee Pharmaceuticals Co., Ltd., priority 2018, dated 2020)", "key": {"recombinant human MMP-8": {"molecular_target": "recombinant human MMP-8 (Homo sapiens (Human), UniProt P22894)", "sequence (P22894 101-467)": "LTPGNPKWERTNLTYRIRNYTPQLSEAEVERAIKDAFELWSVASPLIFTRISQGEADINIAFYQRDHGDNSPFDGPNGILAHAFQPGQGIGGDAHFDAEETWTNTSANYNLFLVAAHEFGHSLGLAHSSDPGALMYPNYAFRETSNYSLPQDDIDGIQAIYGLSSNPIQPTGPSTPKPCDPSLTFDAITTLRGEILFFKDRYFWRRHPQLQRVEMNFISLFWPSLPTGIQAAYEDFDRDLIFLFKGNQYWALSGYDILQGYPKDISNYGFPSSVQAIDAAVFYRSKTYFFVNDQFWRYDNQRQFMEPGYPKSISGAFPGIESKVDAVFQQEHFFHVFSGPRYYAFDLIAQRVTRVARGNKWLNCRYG", "experiment": "MMP selectivity assay MMP-8", "type": "biochemical", "method": "The inhibitory effect of compounds on the rate of cleaving fluorogenic MMP substrate (Enzo, BML-P128) by recombinant human MMP-12 catalytic domain (Enzo, BML-SE138) was carried out by methods known in the art. Briefly, to each well of a 96-well black opaque plate, all the reagents were sequentially added by pipetting, and the final reaction contained 4 nM of recombinant human MMP-12 catalytic domain, 4 μM of fluorogenic MMP substrate, and various concentrations (0.15 nM to 10,000 nM) of tested compound dilutions in HEPES buffer (pH 7.5) containing 10 mM of CaCl2, 0.01% Brij® 35 (polyoxyethylene (23) lauryl ether), and 0.1 mg/ml of BSA.\nThe enzyme and compounds were pre-incubated on a shaker to mix in wells. After an hour of mixing, fluorogenic substrate was added to each well. Reaction without enzyme was used as a blank control in the plate. The plate was then fed into a plate reader to measure fluorescence intensity at Excitation/Emission wavelengths of 340 nm/440 nm every 10 mins for at least 1 hour at 37° C. The IC50 of each compound in MMP-12 inhibition was determined by using a readout obtained at time point 30 minutes.\nThe MMP selectivity assay was performed by using other recombinant human MMPs, including MMP-1, MMP-2, MMP-3, MMP-7, MMP-8, MMP-9, MMP-10, MMP-13, and MMP-14. The IC50 of the compounds for the other recombinant human MMPs was determined as described above in Example 1, and are shown in Table 2."}, "[1]": {"test_system": "bleomycin-induced unilateral lung fibrosis", "experiment": "Bleomycin-induced SD rat unilateral lung fibrosis model (IPF)", "type": "in vivo", "design": "Left lung bronchial and arteriole damage score, fibrosis core / Left lung bronchial and arteriole damage score, fibrosis border: scale not given here; Fibrosis score 1-3 (ratio of left lung fibrosis score) / Fibrosis score 4-8 (ratio of left lung fibrosis score) / Left lung fibrosis area: unit not given here", "conditions": "for Left lung bronchial and arteriole damage score, fibrosis border / Left lung bronchial and arteriole damage score, fibrosis core: 14 days; for Left lung bronchial and arteriole damage score, fibrosis border: model 6.56 ± 0.51; for Left lung bronchial and arteriole damage score, fibrosis core: model 8.34 ± 0.24; for Left lung fibrosis score (Ashcraft): model 3.7 ± 0.1; for Fibrosis score 1-3 (ratio of left lung fibrosis score): model 44.0 ± 3.1; for Fibrosis score 4-8 (ratio of left lung fibrosis score): model 56.0 ± 3.1; for Left lung fibrosis area: model 69.1 ± 3.3", "method": "The purpose of this study was to evaluate the therapeutic effect of FC-4 on bleomycin (BLM) induced unilateral lung fibrosis model in Sprague Dawley (SD) rats. Male SD rats (n=50) were randomly divided into the following groups: Sham group (n=10), Model group (n=10), FC-4 administered at 10 mg/kg/day group (n=10), FC-4 administered at 30 mg/kg/day group (n=10), and FC-4 administered at 100 mg/kg/day group (n=10). All test drugs were delivered orally starting from day 8 of modeling for 14 days. Saline solution was taken for sham and model groups once a day, and FC-4 twice a day for drug treatment groups. Rats were anesthetized and the trachea was exposed. Saline was administrated via direct intra-trachea injection in the sham group, and the other groups' animals received a BLM injection at a dose of 3 mg/kg in volume of 1.0 ml/kg. All animals were processed using a non invasive lung function test with EMMS Whole Body Plethysmography system at pre-modeling, and at days 3, 7, 11, 14, 18 and 21 of modeling. One day after the last drug delivery, the left lung of all animals was perfused with 10% formalin, and processed for pathology analysis.\nAnimals: Species and quality level: SD rats, SPF grade. Gender and number: male, 93. Purchasing body weight range: 260-280 g. Company Certificate No.: SCXX (Jing) 2012-001, Beijing Vital River Laboratory Animal Technology Co., Ltd. Animal Housing: Rats were housed in the Animal House Facility of the Nanjing BioSciKin Co. Ltd. under international standards for temperature, humidity and light control system. The animal use protocol was reviewed and approved by the Institutional Animal Care and Use Committee (IACUC) of KCI Biotech Inc. All experimental procedures were conducted in conformity with institutional guidelines of KCI Biotech Inc.\nModel Establishment: This study was carried out in strict accordance with the SOP institutional guidelines for the care and use of laboratory animals. Rats were anesthetized by intraperitoneal injection of pentobarbital sodium at dose of 50 mg/kg. Then rat neck skin was disinfected and opened in layers. The trachea was exposed carefully. Bleomycin (BLM) was directly injected into the left main bronchus at a dose of 3 mg/kg body weight in volume of 1.0 ml/kg via a cannula. After closing the trachea and skin in layers the animal was moved on an electric heat pad at 37° C. to await waking up from the anesthesia before returning to holding cages with free access to water and diet.\nExperiment Grouping: Rats were assigned into 5groups: Sham (Group-1, n=10), Model (Group-2, n=10), FC-4-Low dose (Group-3, 10 mg/kg/day, n=10), FC-4-Middle dose (Group-4, 30 mg/kg/day, n=10), FC-4-High dose (Group-5, 100 mg/kg/day, n=10) (Table 1).\nDrug Administration: Test article FC-4 were designed as an oral administration via a gastric perfusion. FC-4 was delivered twice a day starting from day-8 of modeling for 14 days. (Table 3.1).\nEndpoint: a) Non invasive lung function test: All animals were given a non-invasive lung function examination with EMMS Whole Body Plethysmography (WBP) system at multiple time points during the study periods, including at pre-IPF modeling, day-3 of IPF, day-7 of IPF before dosing, day-11 of IPF, day-14 of IPF, day-18 of IPF and day-21 of IPF before sacrificing the animals, focusing on the parameters of tidal volume (TV), breath rate, inspiratory volume per minute (MV) and Penh. index. b) Left lung collection for pathology analysis: After the last examination of lung function, all animals were euthanized according to the standard SOP at KCI. After confirming the animal death, each animal received a systemic perfusion with 10% formaldehyde solution, then the left lung was harvested and perfused again with an equal volume of 10% formaldehyde solution (3 ml for each lung). […]"}}}
{"compound": "Cc1cc(COc2ccc(Sc3ccoc3C3NC(=O)NC3=O)cc2)ccn1", "note": "(stereo not drawn) [FC-4]", "values": [{"measurement": "IC50", "setting": "recombinant human MMP-8", "value": "10 to 100", "unit": "nM"}, {"measurement": "Left lung bronchial and arteriole damage score, fibrosis border", "setting": "[1]; 10 mg/kg/d p.o. BID", "value": "4.2 ± 0.516"}, {"measurement": "Left lung bronchial and arteriole damage score, fibrosis core", "setting": "[1]; 10 mg/kg/d p.o. BID", "value": "6.04 ± 0.19"}, {"measurement": "Left lung fibrosis score (Ashcraft)", "setting": "[1]; 10 mg/kg/d p.o. BID", "value": "2.5 ± 0.2"}, {"measurement": "Fibrosis score 1-3 (ratio of left lung fibrosis score)", "setting": "[1]; 10 mg/kg/d p.o. BID", "value": "82.0 ± 5.5"}, {"measurement": "Fibrosis score 4-8 (ratio of left lung fibrosis score)", "setting": "[1]; 10 mg/kg/d p.o. BID", "value": "18.0 ± 5.5"}, {"measurement": "Left lung fibrosis area", "setting": "[1]; 10 mg/kg/d p.o. BID", "value": "75.1 ± 3.0"}, {"measurement": "Left lung bronchial and arteriole damage score, fibrosis border", "setting": "[1]; 30 mg/kg/d p.o. BID", "value": "4.76 ± 0.16"}, {"measurement": "Left lung bronchial and arteriole damage score, fibrosis core", "setting": "[1]; 30 mg/kg/d p.o. BID", "value": "6.18 ± 0.26"}, {"measurement": "Left lung fibrosis score (Ashcraft)", "setting": "[1]; 30 mg/kg/d p.o. BID", "value": "2.6 ± 0.1"}, {"measurement": "Fibrosis score 1-3 (ratio of left lung fibrosis score)", "setting": "[1]; 30 mg/kg/d p.o. BID", "value": "81.0 ± 4.8"}, {"measurement": "Fibrosis score 4-8 (ratio of left lung fibrosis score)", "setting": "[1]; 30 mg/kg/d p.o. BID", "value": "19.0 ± 4.8"}, {"measurement": "Left lung fibrosis area", "setting": "[1]; 30 mg/kg/d p.o. BID", "value": "66.4 ± 2.9"}, {"measurement": "Left lung bronchial and arteriole damage score, fibrosis border", "setting": "[1]; 100 mg/kg/d p.o. BID", "value": "4.18 ± 0.53"}, {"measurement": "Left lung bronchial and arteriole damage score, fibrosis core", "setting": "[1]; 100 mg/kg/d p.o. BID", "value": "6.28 ± 0.21"}, {"measurement": "Left lung fibrosis score (Ashcraft)", "setting": "[1]; 100 mg/kg/d p.o. BID", "value": "2.4 ± 0.2"}, {"measurement": "Fibrosis score 1-3 (ratio of left lung fibrosis score)", "setting": "[1]; 100 mg/kg/d p.o. BID", "value": "84.0 ± 4.3"}, {"measurement": "Fibrosis score 4-8 (ratio of left lung fibrosis score)", "setting": "[1]; 100 mg/kg/d p.o. BID", "value": "16.0 ± 4.3"}, {"measurement": "Left lung fibrosis area", "setting": "[1]; 100 mg/kg/d p.o. BID", "value": "70.5 ± 3.0"}, {"measurement": "Body weight recovery", "setting": "[1]; CPD treatment groups vs model group", "value": "no significant difference in body recovery"}, {"measurement": "Share of Ashcraft score ≤ score 3", "setting": "[1]; all drug treatment groups, model over 60% ≥ score 4", "value": "~80", "unit": "%"}, {"measurement": "MMP-12 expression in fibrosis core (IHC)", "setting": "[1]; clear dose dependent reduction (p>0.05 as printed)", "value": "significant reduction"}, {"measurement": "Collagen-I deposition in fibrosis core (IHC)", "setting": "[1]; each dose, p<0.05", "value": "significant dosing dependent reduction"}, {"measurement": "Collagen-IV deposition in fibrosis core (IHC)", "setting": "[1]; p<0.05", "value": "significant dose dependent reduction"}, {"measurement": "Elastin expression in fibrosis core (IHC)", "setting": "[1]; p<0.05", "value": "significant reduction"}, {"measurement": "TGF-β1 expression in fibrosis core (IHC)", "setting": "[1]; p<0.05", "value": "significant reduction"}, {"measurement": "Non invasive lung function (TV, MV, breath rate, Penh)", "setting": "[1]; vs vehicle treated animals, all doses", "value": "did not show any significant changes"}]}
